Holding throughout (test): relative viability (nuclei count vs DMSO), 5 days (fraction); higher = more cells survive
Compound in the assay “Sunitinib + Luminespib”: CCN(CC)CCNC(=O)c1c(C)[nH]c(/C=C2\C(=O)Nc3ccc(F)cc32)c1C [Sunitinib] + CCNC(=O)c1noc(-c2cc(C(C)C)c(O)cc2O)c1-c1ccc(CN2CCOCC2)cc1 [Luminespib] (partner 0.01 µM)
In a few lines:
(§1)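 A single step with final 0.05% Triton X-100, 1% formaldehyde and 1 ug/ml Hoechst fixed the cells and stained nuclei 5 days after treatment. Lung cancer cell lines in 1536-well plates had been treated by pin tool the day after seeding with one drug alone or a fixed anchor-drug dose plus five library-drug doses (not always all listed) in √10 steps, and nuclei were counted on 4× images. Relative viability is the ratio of nuclei in treated wells to nuclei in vehicle wells, taken as the median of duplicate plates.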

Compound in the assay “Sunitinib + OSI-027”: CCN(CC)CCNC(=O)c1c(C)[nH]c(/C=C2\C(=O)Nc3ccc(F)cc32)c1C [Sunitinib] + COc1cccc2cc(-c3nc([C@H]4CC[C@H](C(=O)O)CC4)n4ncnc(N)c34)[nH]c12 [OSI-027] (partner 0.5 µM)
The procedure, abridged: as §1

Compound in the assay “Sunitinib + Lapatinib”: CCN(CC)CCNC(=O)c1c(C)[nH]c(/C=C2\C(=O)Nc3ccc(F)cc32)c1C [Sunitinib] + CS(=O)(=O)CCNCc1ccc(-c2ccc3ncnc(Nc4ccc(OCc5cccc(F)c5)c(Cl)c4)c3c2)o1 [Lapatinib] (partner 2 µM)
In a few lines: as §1

Compound in the assay “Sunitinib + Linsitinib”: CCN(CC)CCNC(=O)c1c(C)[nH]c(/C=C2\C(=O)Nc3ccc(F)cc32)c1C [Sunitinib] + C[C@]1(O)C[C@@H](c2nc(-c3ccc4ccc(-c5ccccc5)nc4c3)c3c(N)nccn32)C1 [Linsitinib] (partner 1 µM)
In a few lines:
as §1

On to SW 1573, for which the relative viability with Sunitinib + Luminespib (first compound 0.02 µM) was found to be 0.156; with Sunitinib + Luminespib (first compound 0.06325 µM), 0.248; in the assay with Sunitinib + Luminespib (first compound 0.2 µM), 0.247; with Sunitinib + Luminespib (first compound 0.6325 µM), 0.189; in the assay with Sunitinib + Luminespib (first compound 2 µM), 0.186; in the assay with Sunitinib + OSI-027 (first compound 0.02 µM), 0.617. In addition, the relative viability in the assay with Sunitinib + OSI-027 (first compound 0.06325 µM) was determined as 0.938; in the assay with Sunitinib + OSI-027 (first compound 0.2 µM), 0.779; with Sunitinib + OSI-027 (first compound 0.6325 µM), 0.781; in the assay with Sunitinib + OSI-027 (first compound 2 µM) it was 0.671; with Sunitinib + Lapatinib (first compound 0.02 µM), 1.19; in the assay with Sunitinib + Lapatinib (first compound 0.06325 µM), 1.3. In addition, the relative viability in the assay with Sunitinib + Lapatinib (first compound 0.2 µM) stood at 1.31; with Sunitinib + Lapatinib (first compound 0.6325 µM), 1.14; in the assay with Sunitinib + Linsitinib (first compound 0.02 µM) it was 0.987; with Sunitinib + Linsitinib (first compound 0.06325 µM), 1; in the assay with Sunitinib + Linsitinib (first compound 0.2 µM) it was 0.917; in the assay with Sunitinib + Linsitinib (first compound 0.6325 µM), 0.999.

On to NCI-H1563, for which the relative viability came to 0.54 with Sunitinib + Luminespib (first compound 0.02 µM); 0.566 in the assay with Sunitinib + Luminespib (first compound 0.06325 µM); 0.5 in the assay with Sunitinib + Luminespib (first compound 0.2 µM); 0.517 with Sunitinib + Luminespib (first compound 0.6325 µM); 0.479 in the assay with Sunitinib + Luminespib (first compound 2 µM); 0.694 in the assay with Sunitinib + OSI-027 (first compound 0.02 µM). Further, the relative viability with Sunitinib + OSI-027 (first compound 0.06325 µM) was 0.79; with Sunitinib + OSI-027 (first compound 0.2 µM) it was 0.766; with Sunitinib + OSI-027 (first compound 0.6325 µM) it was 0.762; in the assay with Sunitinib + OSI-027 (first compound 2 µM) it was 0.75; with Sunitinib + Lapatinib (first compound 0.02 µM), 0.925; in the assay with Sunitinib + Lapatinib (first compound 0.06325 µM) it was 0.988. Further, the relative viability with Sunitinib + Lapatinib (first compound 0.2 µM) is 1.03; with Sunitinib + Lapatinib (first compound 0.6325 µM) it was 1.09; in the assay with Sunitinib + Lapatinib (first compound 2 µM) it was 1.05; in the assay with Sunitinib + Linsitinib (first compound 0.02 µM), 1.27; in the assay with Sunitinib + Linsitinib (first compound 0.06325 µM) it was 1.23; in the assay with Sunitinib + Linsitinib (first compound 0.2 µM), 1.23. In addition, the values for the relative viability with Sunitinib + Linsitinib (first compound 0.6325 µM) and with Sunitinib + Linsitinib (first compound 2 µM) were 1.21 and 1.22, respectively.

Turning to NCI-H358, the relative viability with Sunitinib + Luminespib (first compound 0.02 µM) was 0.375; with Sunitinib + Luminespib (first compound 0.06325 µM), 0.304; in the assay with Sunitinib + Luminespib (first compound 0.2 µM), 0.564; in the assay with Sunitinib + Luminespib (first compound 0.6325 µM) it was 0.307; with Sunitinib + Luminespib (first compound 2 µM), 0.242; with Sunitinib + OSI-027 (first compound 0.02 µM), 0.685. The relative viability in the assay with Sunitinib + OSI-027 (first compound 0.06325 µM) came to 0.814; in the assay with Sunitinib + OSI-027 (first compound 0.2 µM) it was 0.878; with Sunitinib + OSI-027 (first compound 0.6325 µM), 0.691; with Sunitinib + OSI-027 (first compound 2 µM), 0.38; in the assay with Sunitinib + Lapatinib (first compound 0.02 µM) it was 0.421; in the assay with Sunitinib + Lapatinib (first compound 0.06325 µM) it was 0.6. The relative viability was 0.457 in the assay with Sunitinib + Lapatinib (first compound 0.2 µM); 0.514 in the assay with Sunitinib + Lapatinib (first compound 0.6325 µM); 0.377 in the assay with Sunitinib + Lapatinib (first compound 2 µM); 0.718 with Sunitinib + Linsitinib (first compound 0.02 µM); 0.685 with Sunitinib + Linsitinib (first compound 0.06325 µM); 0.863 in the assay with Sunitinib + Linsitinib (first compound 0.2 µM). Further, the relative viability with Sunitinib + Linsitinib (first compound 0.6325 µM) amounted to 0.592; with Sunitinib + Linsitinib (first compound 2 µM), 0.447.

On to LCLC-97TM1, for which the relative viability stood at 0.597 with Sunitinib + Luminespib (first compound 0.02 µM); 0.743 in the assay with Sunitinib + Luminespib (first compound 0.06325 µM); 0.794 with Sunitinib + Luminespib (first compound 0.6325 µM); 0.772 with Sunitinib + Luminespib (first compound 2 µM); 0.553 in the assay with Sunitinib + OSI-027 (first compound 0.02 µM); 0.59 with Sunitinib + OSI-027 (first compound 0.06325 µM). For the same cell line, the relative viability with Sunitinib + OSI-027 (first compound 0.2 µM) amounted to 0.598; with Sunitinib + OSI-027 (first compound 0.6325 µM), 0.48; with Sunitinib + OSI-027 (first compound 2 µM), 0.473; in the assay with Sunitinib + Lapatinib (first compound 0.02 µM), 1.06; with Sunitinib + Lapatinib (first compound 0.06325 µM), 0.81; with Sunitinib + Lapatinib (first compound 0.6325 µM), 0.924. For the same cell line, the relative viability with Sunitinib + Linsitinib (first compound 0.02 µM) was determined as 0.176; with Sunitinib + Linsitinib (first compound 0.06325 µM), 0.197; in the assay with Sunitinib + Linsitinib (first compound 0.6325 µM), 0.213; with Sunitinib + Linsitinib (first compound 2 µM), 0.191.

As for NCI-H647, the relative viability was 0.232 in the assay with Sunitinib + Luminespib (first compound 0.02 µM); 0.143 in the assay with Sunitinib + Luminespib (first compound 0.06325 µM); 0.131 with Sunitinib + Luminespib (first compound 0.2 µM); 0.137 with Sunitinib + Luminespib (first compound 0.6325 µM); 0.154 with Sunitinib + Luminespib (first compound 2 µM); 0.631 with Sunitinib + OSI-027 (first compound 0.02 µM). Also, the relative viability with Sunitinib + OSI-027 (first compound 0.06325 µM) turned out to be 0.725; with Sunitinib + OSI-027 (first compound 0.2 µM) it was 0.562; in the assay with Sunitinib + OSI-027 (first compound 0.6325 µM), 0.821; with Sunitinib + OSI-027 (first compound 2 µM), 0.575; with Sunitinib + Lapatinib (first compound 0.02 µM) it was 0.939; with Sunitinib + Lapatinib (first compound 0.06325 µM), 1.26. For the same cell line, the relative viability with Sunitinib + Lapatinib (first compound 0.2 µM) was found to be 1.19; in the assay with Sunitinib + Lapatinib (first compound 0.6325 µM), 1.13; in the assay with Sunitinib + Lapatinib (first compound 2 µM), 0.913; in the assay with Sunitinib + Linsitinib (first compound 0.06325 µM), 1.23; with Sunitinib + Linsitinib (first compound 0.2 µM), 1.28; in the assay with Sunitinib + Linsitinib (first compound 0.6325 µM), 0.991. Moreover, the relative viability with Sunitinib + Linsitinib (first compound 2 µM) came out at 0.969.

With NCI-H1915, the relative viability in the assay with Sunitinib + Luminespib (first compound 0.02 µM) stood at 0.5; with Sunitinib + Luminespib (first compound 0.06325 µM) it was 0.846; with Sunitinib + Luminespib (first compound 0.2 µM), 0.822; with Sunitinib + Luminespib (first compound 0.6325 µM) it was 0.869; in the assay with Sunitinib + Luminespib (first compound 2 µM) it was 0.83; with Sunitinib + OSI-027 (first compound 0.02 µM), 0.605. Besides, the relative viability came to 0.645 with Sunitinib + OSI-027 (first compound 0.06325 µM); 0.71 with Sunitinib + OSI-027 (first compound 0.2 µM); 0.612 in the assay with Sunitinib + OSI-027 (first compound 0.6325 µM); 0.618 with Sunitinib + OSI-027 (first compound 2 µM); 0.958 with Sunitinib + Lapatinib (first compound 0.02 µM); 1.03 with Sunitinib + Lapatinib (first compound 0.06325 µM). For the same cell line, the relative viability in the assay with Sunitinib + Lapatinib (first compound 0.2 µM) is 1.04; with Sunitinib + Lapatinib (first compound 0.6325 µM), 0.998; with Sunitinib + Lapatinib (first compound 2 µM), 1.02; with Sunitinib + Linsitinib (first compound 0.02 µM) it was 1.08; with Sunitinib + Linsitinib (first compound 0.06325 µM) it was 1.15; with Sunitinib + Linsitinib (first compound 0.2 µM), 1.14. Moreover, the relative viability with Sunitinib + Linsitinib (first compound 0.6325 µM) was 1.09; with Sunitinib + Linsitinib (first compound 2 µM) it was 1.11.

Consider CAL-12T, for which the relative viability with Sunitinib + Luminespib (first compound 0.02 µM) is 0.364; with Sunitinib + Luminespib (first compound 0.06325 µM), 0.41; with Sunitinib + Luminespib (first compound 0.2 µM) it was 0.385; with Sunitinib + Luminespib (first compound 0.6325 µM), 0.369; with Sunitinib + Luminespib (first compound 2 µM), 0.203; with Sunitinib + OSI-027 (first compound 0.02 µM) it was 0.665. Further, the relative viability came out at 0.695 with Sunitinib + OSI-027 (first compound 0.06325 µM); 0.748 in the assay with Sunitinib + OSI-027 (first compound 0.2 µM); 0.397 in the assay with Sunitinib + OSI-027 (first compound 2 µM); 0.687 with Sunitinib + Lapatinib (first compound 0.02 µM); 0.77 in the assay with Sunitinib + Lapatinib (first compound 0.06325 µM); 0.67 in the assay with Sunitinib + Lapatinib (first compound 0.2 µM). Moreover, the relative viability with Sunitinib + Lapatinib (first compound 0.6325 µM) amounted to 0.807; in the assay with Sunitinib + Lapatinib (first compound 2 µM), 0.665; in the assay with Sunitinib + Linsitinib (first compound 0.02 µM) it was 0.807; in the assay with Sunitinib + Linsitinib (first compound 0.06325 µM), 0.82; with Sunitinib + Linsitinib (first compound 0.2 µM), 1.2; in the assay with Sunitinib + Linsitinib (first compound 0.6325 µM), 1.06. Also, in the assay with Sunitinib + Linsitinib (first compound 2 µM), the relative viability amounted to 1.01.

These data come from the supplement of paper PMC10307832.
